Molecules are shown by their SMILES. Structures can show the parent of a compound that is named as a salt. Non-standard residues stand in square brackets, D forms with d. Residues, ends and D or L forms follow the SMILES beside them. *: point of attachment. Butanoyl(4-(4-HOPh)) = O=C(CCCc1ccc(O)cc1)*; Boc = CC(C)(C)OC(=O)*

The test system of the first assay is Plasmodium falciparum. Kind of assay: GSK_TCMDC: Inhibition of Plasmodium falciparum 3D7 in whole erythrocytes, using parasite LDH activity as an index of growth. It is filed as functional, organism-based.
Conditions: not given
`CCOc1ccc2nccc([C@@H](O)[C@@H]3C[C@@H]4CCN3C[C@@H]4CC)c2c1` [ETHYLHYDROCUPREINE HYDROCHLORIDE]: the XC50 was found to be 112 nM.
On the same count and under the same terms, for `CCOc1ccc2nccc([C@@H](O)[C@@H]3C[C@@H]4CCN3C[C@@H]4CC)c2c1` [ETHYLHYDROCUPREINE] the value was 612 nM.

Still in this assay, the particulars now being: Plasmodium falciparum, 3D7.
As to `O=[N+]([O-])c1ccc(Nc2nc(N/N=C/c3ccc(-c4ccc([N+](=O)[O-])cc4)o3)nc(Nc3ccccc3)n2)cc1`, the XC50 came to 640 nM.
Regarding `COC(=O)CCCCOc1cc(Cc2cnc(N)nc2N)cc(OC)c1OC`, the XC50 stood at 173 nM.
Same read-out and setting: for `O=C(Cn1c(CCc2cccc(F)c2F)nc(=O)c2ccccc21)N(Cc1ccc(-c2ccc(C(F)(F)F)cc2)cc1)C1CCN(C2CCOCC2)CC1` the value was 745 nM.
Same read-out and setting: the result for `COc1ccc(NC(=O)CCNc2ccnc(NCCc3ccc(F)cc3)n2)cc1` reads 990 nM; that for `CC(C)C(C(=O)n1ncc2c3c(N)nc(N)nc3ccc21)C(C)C`, 648 nM; that for `COc1ccc(CC2(CO)CCN(Cc3ccc(O)c(Cl)c3)CC2)cc1`, 859 nM.
With `COc1cc2nc(N3CCC(CNC(=O)c4ccc(C(C)=O)cc4)CC3)nc(N)c2cc1OC`, the XC50 came to 1120 nM.
`CC(CN1CCN(C)CC1)C(=O)Nc1ccc(-c2csc(-c3nc4ccccc4[nH]3)c2)cc1` (configuration not stated) registered an XC50 of 837 nM.
Still for that read-out and setting: for `CCOC(=O)CC[C@@H](NC(=O)c1ccc(NCc2ccc3ccc4nc(C)[nH]c(=O)c4c3c2)cc1F)C(=O)N[C@@H](Cc1c[nH]c2ccccc12)C(=O)OCC` the value was 1030 nM; for `Cc1cccc2c(C(=O)NC3CCN(Cc4ccccc4)CC3)cc(-c3cccnc3)nc12`, 1380 nM.
With `CCCc1ccc(Nc2nc(C)cc(N(CC)CCCN3CCCCC3)n2)cc1`, the XC50 worked out at 543 nM.
For the compound `Nc1nccc2ccc(-c3ccncc3)cc12`, the XC50 stood at 249 nM.
Take `O=C(Nc1ccc(CN2CCOCC2)cc1)c1ccc(-c2ccc(Cl)cc2)o1`: the XC50 was 862 nM.
Same read-out and setting: the result for `CCCc1cc(Cc2cnc(N)nc2N)cc(CC)c1OC` reads 821 nM; that for `Clc1ccc2c(NCc3ccccn3)ccnc2c1`, 664 nM; that for `Clc1ccc(-c2cnc3ccc(NCCc4cccnc4)nn23)cc1`, 857 nM.
As to `CC(C)C1C(=O)N(S(C)(=O)=O)C2CCN(C(=O)c3ccc(CN4CCCCC4)c([N+](=O)[O-])c3)C12` (configuration not stated), the XC50 is 620 nM.
Still for that read-out and setting: for `COc1ccc(CNC2CCN(C)CC2)cc1-c1ccc(S(=O)(=O)NCc2ccccc2)cc1` the value was 604 nM.
On the same count and under the same terms, the result for `CCC(C)NS(=O)(=O)c1ccc2nc(Nc3cccc(SC)c3)n(C(C)C(C)C)c2c1` (configuration not stated) reads 503 nM.
Same read-out and setting: for `O=[N+]([O-])c1ccc2ncnc(Nc3ccc(F)c(Cl)c3)c2c1` the value was 709 nM; for `Cc1cc(C)c(O)c(-c2cc(C(=O)Nc3ccc(S(=O)(=O)N4CC(C)OC(C)C4)cc3)[nH]n2)c1` (configuration not stated), 664 nM; for `Cc1cc(N[C@@H](Cc2ccccc2)C(=O)NC2CCCC2)nc(NCCc2ccc(F)cc2)n1`, 803 nM.
For the compound `CC1CCc2sc(-c3nnc(SC(C)C(=O)NC4CC4)o3)cc2C1` (configuration not stated), the XC50 was 1210 nM.
For the compound `O=C(Cc1ccc[n+]([O-])c1)Nc1cccc(-c2cccc(-c3nc4cc(C(F)(F)F)ccc4[nH]3)c2)c1`, the XC50 was 784 nM.
As for `CC(=O)Nc1ccc(OCCN(Cc2ccccc2C(F)(F)F)c2ccc(C#N)c(C(F)(F)F)c2)c(Cl)c1`, the XC50 was 619 nM.
On the same count and under the same terms, for `COC(=O)c1cccc(CNCc2cccc(-c3ccc(-c4nc5cccc(C)c5[nH]4)s3)c2)c1` the value was 211 nM; for `CCCCNc1c(CC)c(C)c(C#N)c2nc3ccccc3n12`, 385 nM; for `N=C(N)c1ccc(Nc2nccc(Nc3nc(-c4ccccc4)cs3)n2)cc1`, 754 nM.
Same read-out and setting: the result for `Cc1ccc(Nc2nc(NN=Cc3ccc(-c4ccc([N+](=O)[O-])cc4)o3)nc(N3CCOCC3)n2)cc1Cl` reads 652 nM.
Same read-out and setting: for `CS(=O)(=O)c1cccc(-c2cnc3[nH]cc(-c4ccc(C(=O)O)cc4)c3c2)c1` the value was 335 nM; for `O=C(N[C@@H](CC1CCCCC1)C(=O)NCCN1CCCCC1)c1ccc(O)c(-c2ccc(Cl)c(Cl)c2)c1`, 148 nM.
Turning to `Cc1cccc2nc(-c3cccc(-c4cccc(NC(=O)COc5ccccc5C(N)=O)c4)c3)[nH]c12`, the XC50 stood at 161 nM.
On the same count and under the same terms, the result for `CCCCN1CCCN(Cc2cccc(NC(=O)c3ccc(-c4ccccc4)cc3)c2)CC1` reads 1030 nM; that for `CC1(C)N=C(N)N=C(N)N1c1cccc(Cl)c1`, 37.9 nM.
On the same count and under the same terms, the result for `COc1ccc2[nH]ccc(=NN=Cc3ccc(N(C)C)cc3)c2c1` reads 799 nM; that for `COc1ccc(Cl)cc1N1CCN(CCCNC(=O)c2ccc(-c3nc4cc(Cl)c(Cl)cc4[nH]3)c(C)c2)CC1`, 866 nM.
In turn, `CC(C)N(Cc1cnc2nc(N)nc(N)c2n1)c1ccc(Cl)c(Cl)c1` came in with an XC50 of 158 nM.
As for `CC(C)(CNC(=O)[C@H]1CCCCN1)c1nc(-c2ccc(Cl)c(O)c2)c(-c2ccncc2)[nH]1`, the XC50 amounted to 727 nM.
Still for that read-out and setting: the result for `Cc1nc(-c2ccc(-c3ccc(C(=O)Nc4ccc(Cl)c(N5CCN(C)CC5)c4)cc3)c(C)c2)no1` reads 743 nM.
On to `COc1ccc(-c2cccc(NC(=O)c3ccc(Cl)cc3)c2)cc1CN1CCCN(C)CC1`, for which the XC50 is 387 nM.
Still for that read-out and setting: the result for `Cc1c(-c2cccc(Br)c2)[nH]c2nc(N)nc(N)c12` reads 743 nM; that for `O=C(Nc1nc2cc(S(=O)(=O)NCCc3ccc(F)cc3)ccc2n1CCCn1ccnc1)c1ccc(Cl)cc1`, 1110 nM.
On the same count and under the same terms, for `O=C(c1ccc(F)c2ccccc12)N1CCc2cc3nccc(N4CCN5CCC[C@H]5C4)c3cc21` the value was 1000 nM; for `O=C(Nc1cccc(CN2CCCN(Cc3ccc(O)cc3)CC2)c1)c1ccc2ccccc2c1`, 373 nM.
Same read-out and setting: for `CNCCCn1c(N(C)C)nc2cc(-n3cnc4cc(-c5ccc(Cl)cc5)sc4c3=O)ccc21` the value was 1140 nM; for `Cc1ccc(C(=O)Nc2cccc(CN3CCCN(Cc4ccc(O)cc4)CC3)c2)cc1`, 1090 nM; for `COc1ccc2[nH]ccc(=NN=Cc3cccnc3)c2c1`, 501 nM.
For the compound `O=C(Nc1ccc(Cl)cc1)Nc1cccc(CCNCc2ccccc2)c1`, the XC50 amounted to 728 nM.
The same measure, in the same setting: for `C=CCCCNCC(NCCCNc1cc(=O)c2ccccc2[nH]1)c1cc(Br)cc(Br)c1` (configuration not stated) the value was 893 nM.
Same read-out and setting: the result for `O=C(Nc1ccc(-c2cncc(NCCCN3CCCC3)c2)cc1)c1ccccc1` reads 939 nM.
Same read-out and setting: for `COc1ccc(N2C(=O)c3c(c4ccccc4n3C)C2c2ccccc2O)cc1` (configuration not stated) the value was 117 nM; for `CN1CCN(c2nc(NCCNc3ccc([N+](=O)[O-])cc3)c3ccccc3n2)CC1`, 1320 nM; for `CCCCCCCCNCc1c(O)ccc2ccccc12`, 739 nM.
For `Cc1cccc(Nc2nc(N[C@@H]3CCCNC3)nc3cc[nH]c(=O)c23)c1`, the XC50 is 683 nM.
The same measure, in the same setting: the result for `COc1ccc(C2c3cc(OC)c(OC)cc3C(=NO)C2C)cc1OC` (configuration not stated) reads 1170 nM.
Compound `NOCCCCOc1ccc(Cl)cc1` gave an XC50 of 785 nM.
On the same count and under the same terms, the result for `CC(C)Oc1cc2c(cc1NS(=O)(=O)c1ccc(-c3cccs3)cc1)CCN(C)CC2` reads 961 nM; that for `Fc1ccc(CNc2nc(-c3ccc(F)c(C(F)(F)F)c3)n(-c3cccc(C(F)(F)F)c3)n2)cc1`, 563 nM.
Same read-out and setting: for `COC(=O)c1cccc(CNCc2cccc(-c3ccc(-c4nc5ccccc5[nH]4)cc3)c2)c1` the value was 354 nM; for `COC(=O)CC[C@H](NC(=O)[C@H](C)NC(=O)OC(C)(C)C)C(=O)OC` (Boc-Ala-Glu(OMe)-OMe), 819 nM.
Still for that read-out and setting: for `O=C(NCC(=O)N1CCC[C@H]1C(=O)O)[C@@H](Cc1ccccc1)NC(=O)[C@@H]1CCCN1C(=O)CCCc1ccc(O)cc1` ({Butanoyl(4-(4-HOPh))}-P[dF]GP-OH) the value was 1050 nM.
Compound `NC12CC3CC(CC(C3)C1)C2` [AMANTADINE] showed an XC50 of 164 nM.
On the same count and under the same terms, the result for `COc1ccc(C[C@H]2NC[C@H](O)[C@H]2OC(C)=O)cc1` [ANISOMYCIN] reads 138 nM.
Still for that read-out and setting: for `CO/C=C(/C(=O)OC)c1ccccc1Oc1cc(Oc2ccccc2C#N)ncn1` [AZOXYSTROBIN] the value was 40.5 nM; for `O=P(O)(O)Oc1c(Br)cc(Br)cc1-c1cc(Br)cc(Br)c1O` [BROMOFENOFOS], 173 nM; for `CC1=CC(=O)[C@@H](O)[C@]2(C)[C@H]3[C@@]4(O)OC[C@@]35[C@@H](C[C@@H]12)OC(=O)C[C@H]5[C@@H](C)[C@H]4O` [CHAPARRINONE], 347 nM.
`CCN(CC)CCCC(C)Nc1ccnc2cc(Cl)ccc12` (configuration not stated) [CHLOROQUINE PHOSPHATE] gave an XC50 of 178 nM.
On the same count and under the same terms, the result for `C=C[C@H]1CN2CC[C@H]1C[C@H]2[C@H](O)c1ccnc2ccccc12` [CINCHONIDINE] reads 172 nM; that for `C=C[C@H]1CN2CC[C@H]1C[C@@H]2[C@@H](O)c1ccnc2ccccc12` [CINCHONINE], 766 nM; that for `C[C@@H]1C[C@@H]([C@H](O)CC2CC(=O)NC(=O)C2)C(=O)[C@@H](C)C1` [CYCLOHEXIMIDE], 527 nM.
Same read-out and setting: for `O=c1ccc2ccc(O)c(O)c2o1` [DAPHNETIN] the value was 32.2 nM; for `CCC1=C(CC2NCCc3cc(OC)c(OC)cc32)CC2c3cc(OC)c(OC)cc3CCN2C1` (configuration not stated) [DIHYDROEMETINE], 312 nM.
The same measure, in the same setting: for `CCC(Cc1cnc2nc(N)nc(N)c2n1)c1ccc(C(=O)N[C@@H](CCC(=O)O)C(=O)O)cc1` (some centres not stated) [EDATREXATE] the value was 36.7 nM.
The compound `Cc1c2ccncc2c(C)c2c1[nH]c1ccccc12` [ELLIPTECINE] had an XC50 of 796 nM.
Still for that read-out and setting: the result for `CC[C@H]1CN2CCc3cc(OC)c(OC)cc3[C@@H]2C[C@@H]1C[C@H]1NCCc2cc(OC)c(OC)cc21` [EMETINE] reads 214 nM; that for `CCOc1cc(Cc2cnc(N)nc2N)cc(OCC)c1-n1cccc1` [EPIROPRIM], 761 nM; that for `CN(C)c1cc2c(Nc3ccc4nc(Cc5ccccc5)[nH]c4c3)ncnc2cn1` [GW301888X], 1140 nM.
Still for that read-out and setting: the result for `Cc1ccc(O)cc1Nc1ccnc2cc(-c3ccccn3)ccc12` [GW440139A] reads 761 nM.
`CS(=O)(=O)CCNCc1ccc(-c2ccc3ncnc(Nc4ccc(OCc5ccccc5)c(Cl)c4)c3c2)o1` [GW574783B] showed an XC50 of 557 nM.
`Nc1ncnc2occ(-c3ccc(NC(=O)Nc4cc(C(F)(F)F)ccc4F)cc3)c12` [GW770249A]: the XC50 worked out at 1720 nM.

The values above are taken from ChEMBL document CHEMBL1157539, “Thousands of chemical starting points for antimalarial lead identification” (Nature, 2010).
